This test deals with T1, Peptide deformylase (Streptococcus pneumoniae (strain ATCC BAA-255 / R6), UniProt Q8DP79).
T1 sequence (Q8DP79 whole entry): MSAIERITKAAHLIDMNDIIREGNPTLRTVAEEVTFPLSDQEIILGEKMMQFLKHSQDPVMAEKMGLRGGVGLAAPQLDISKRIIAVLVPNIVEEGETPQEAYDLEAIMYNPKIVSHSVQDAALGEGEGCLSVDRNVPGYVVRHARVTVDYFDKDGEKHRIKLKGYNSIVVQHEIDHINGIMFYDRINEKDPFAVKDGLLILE
Description: Binding Assay. From the text:
Binding assay using PDF inhibitors.
In turn, `CCCCC[C@H](CN(O)C=O)C(=O)NNc1nccc(C(F)(F)F)n1` [PDF inhibitor, compound 1] showed a Ki of 6310 nM.
With `CNC(=O)c1cccc(C)c1Nc1nc(N2CCN(c3ccccc3Cl)CC2)nc(N2CSC[C@H]2C(=O)NCC(=O)NO)n1` [PDF inhibitor, compound 2], the Ki was 334 nM.
`O=CC(O)CCNC(=O)c1cccc(Cl)c1Cl` (stereo unspecified) [PDF inhibitor, compound 4]: the Ki came to 25900 nM.
Next, `CNC(=O)c1cccc(C)c1Nc1nc(N2CCN(c3ccccc3Cl)CC2)nc(N2CSC[C@H]2COCC(=O)NO)n1` [PDF inhibitor, compound 6]: 213 nM; `Cc1ccccc1Nc1nc(N2CCN(c3ccccc3Cl)CC2)nc(N2CSC[C@H]2C(=O)NCC(=O)NO)n1` [PDF inhibitor, compound 7]: 650 nM; `Cc1ccccc1Nc1nc(N2CCN(c3ccccc3Cl)CC2)nc(N2CSC[C@H]2COCC(=O)NO)n1` [PDF inhibitor, compound 8]: 53.7 nM.

The values are drawn from BindingDB's records for doi:10.1021/bi200655g (Glaxosmithkline, 2011).
